In brackets after ≈: the same amount, converted by molar mass. Read-outs that look alike come from different tables or passages of the source.
Key:
uridine phosphorylase [1] = conditions: *calculated from Niedzwicki, J. G. et al.; read-out: APP Ki (apparent inhibition constant); cited from earlier work
[2] = Solubility in water at room temperature; assay type: physicochemical
[3] = prolonged AZT administration, or high doses of uridine (background); cited from earlier work
uridine phosphorylase [4] = assay: Inhibition of uridine phosphorylase (mouse liver cytosol, uridine substrate); assay type: biochemical; conditions: for Ki: uridine 1 mM, pH 8, 37° C., 30 min, Dixon plots, read-out: APP Ki (apparent inhibition constant); for uridine phosphorylase inhibition compared with uracil / acyclouridine counterpart or analogue: comparison in words from Table I
Protocol: The activity of the 5-benzyl barbiturates of this invention as inhibitors of uridine phosphorylase was measured essentially following the procedure of Naguib et al. (vol. 36, Biochem. Pharmac. pp. 2195-2201 (1987)), the disclosure of which is incorporated herein by reference. An abridged description of the protocol is described below.
Mouse livers for these experiments were obtained from Swiss Albino (CDl) mice (Charles River Laboratories, Boston, Mass.). The mice were killed by cervical dislocation, and the livers removed and washed with ice-cold normal saline (0.9%) before any further manipulation.
The saline solution was wiped off the organs with tissue paper, and the organs weighed and then cut into smaller pieces in ice-cold homogenization buffer (3:1, v/w) containing 20 mM potassium phosphate (pH 8), 1 mM EDTA, and 1 mM mercaptoethanol. The livers were then homogenized with a polytron homogenizer (Brinkman), and the homogenates centrifuged at 105,000 g for 1 hr at 4°. The supernatant fluids (cytosol) were collected and used as the enzyme source.
The assay mixture contained 20 mM potassium phosphate (pH 8), 1 mM EDTA, 1 mM mercaptoethanol, substrate (uridine, 9 mCi/mmol) and 40 μl of enzyme preparation in a final volume of 80 μl. Under these conditions the activity was linear with time and amount of enzyme. Apparent Ki values were estimated from Dixon plots (1/v vs[I]) of the data by a computer program with least squares fitting, using uridine (1 mM) and five different concentrations of the inhibitor within the range of 0.0625 μM and 1.0 μM.
Incubation was carried out at 37° C., for 30 min. The reaction was terminated by immersing the reaction tubes (1 ml Eppendorf tubes) in boiling water for 1 min. and then freezing the reaction tubes for at least 20 min. Proteins were removed by centrifugation, and 5 μl of the supernatant fluid spotted on silica gel TLC plates which had been prespotted with 5 μl of a standard mixture of 10 mM each uridine and uracil. The plates were then developed in a mixture of chloroform and methanol (90:10, v/v). Uridine and uracil were identified by UV quenching. (Rf values for uridine and uracil are 0.09 and 0.39, respectively.) Spots were then cut out and counted in 20 ml of Omnifluor-based scintillant.
Protein concentrations were determined by the method of Bradford, (Bradford, M. M., vol. 72, Analyt. Biochem. p. 248 (1976)) as described by the Bio-Rad Laboratories (Bio-Rad Laboratories, Bulletin 1069, Bio-Rad Laboratories, Richmond, Calif. (1979)), using bovine […] as a standard.

[5] = in water at room temperature; acyclouridines of the art (background); cited from earlier work
[6] = system: human bone marrow progenitor cells (HBMP); conditions: Somadossi et al. 1988; cited from earlier work
[7] = water, in water, at room temperature, read-out: SOL. (solubility)

**Q.** For O=c1[nH]cc(Cc2ccccc2)c(=O)[nH]1 [BU], which Ki (uridine phosphorylase [1]) is on record?
**A.** 54 µM

**Q.** What about the solubility ([2]; water) of the same compound?
**A.** ≤ 1000 µM

**Q.** Which toxic side effects [3] does the source give for Cc1cn([C@H]2C[C@H](N=[N+]=[N-])[C@@H](CO)O2)c(=O)[nH]c1=O [AZT, 3'-azido-3'-deoxythymidine] here?
**A.** suppression of bone marrow growth in the patient

**Q.** For “5-benzyloxybenzylacetyl-1-[(1-hydroxy-2-ethoxy)methyl] barbiturate [BBCAB]”, which Ki (uridine phosphorylase [4]) is on record?
**A.** 2.6 µM

**Q.** And the “SOL. (solubility)” value ([2]; in water, at room temperature)?
**A.** > 3000 µM

**Q.** Which “uridine phosphorylase inhibition compared with uracil / acyclouridine counterpart or analogue” value (uridine phosphorylase [4]) does the source give for O=C1NC(=O)C(Cc2cccc(OCc3ccccc3)c2)C(=O)N1 [BBB, 5-benzyloxybenzyl barbiturate] here?
**A.** significantly stronger uridine phosphorylase inhibitor than BBU

**Q.** What about the Ki (uridine phosphorylase [4]) of the same compound?
**A.** 3 µM

**Q.** And the solubility [2, 7]?
**A.** > 3000 µM

**Q.** Which solubility in water [5] does the source give for O=c1[nH]c(=O)n(COCCO)cc1Cc1cccc(OCc2ccccc2)c1 [BBAU, 5-benzyl-oxybenzyl-acyclouridine] here?
**A.** about 1 mM

**Q.** What about the Ki (uridine phosphorylase [4]) of the same compound?
**A.** 1.1 µM

**Q.** And the solubility ([2]; water)?
**A.** ≤ 1000 µM

**Q.** For O=c1ccn([C@@H]2O[C@H](CO)[C@@H](O)[C@H]2O)c(=O)[nH]1 [uridine], which “reversal of toxic effects of AZT” value [6] is on record?
**A.** can reverse the toxic effects of AZT in human bone marrow progenitor cells (HBMP)

**Q.** What about the toxic side effects [3] of the same compound?
**A.** toxic side effects, such as phlebitis and pyrogenic reactions

**Q.** With COc1cccc(CC2C(=O)NC(=O)N(COCCOC(C)=O)C2=O)c1 (centres unmarked) [MBCAB, 5-Methoxybenzylacetyl acyclo barbiturate] as the compound, how does the Ki (uridine phosphorylase [4]) read?
**A.** 1.9 µM

**Q.** And the solubility [2, 7]?
**A.** > 3000 µM

**Q.** With O=c1[nH]c(=O)n(COC(CO)CO)cc1Cc1cccc(OCc2ccccc2)c1 [HM-BBAU] as the compound, how does the solubility in water [5] read?
**A.** about 1 mM

**Q.** For O=C1CC(=O)NC(=O)N1 [Barbiturate, barbituric acid], which Ki (uridine phosphorylase [4]) is on record?
**A.** ~1500 µM

**Q.** What about the solubility ([2]; in water, at room temperature, read-out: SOL. (solubility)) of the same compound?
**A.** > 3000 µM

**Q.** For O=C1NC(=O)C(Cc2ccccc2)C(=O)N1 [BB, 5-benzyl barbiturate], which Ki (uridine phosphorylase [4]) is on record?
**A.** 44 µM

**Q.** What about the solubility [2, 7] of the same compound?
**A.** > 3000 µM

**Q.** With Nc1ccn([C@@H]2O[C@H](CO)[C@@H](O)[C@H]2O)c(=O)n1 [cytidine] as the compound, how does the “reversal of toxic effects of AZT” value [6] read?
**A.** to a lesser extent

**Q.** For O=c1[nH]cc(Cc2cccc(OCc3ccccc3)c2)c(=O)[nH]1 [BBU, 5-benzyloxybenzyl uracil], which solubility ([2]; water) is on record?
**A.** ≤ 1000 µM

**Q.** For O=c1[nH]c(=O)n(COCCO)cc1Cc1ccccc1 [BAU], which solubility in water [5] is on record?
**A.** about 1 mM

**Q.** And the Ki (uridine phosphorylase [4])?
**A.** 3.2 µM

**Q.** What about the solubility ([2]; water) of the same compound?
**A.** 1000 µM (≈ 276 µg/mL)

**Q.** What does the source list for O=C1NC(=O)N(COCCO)C(=O)C1Cc1cccc(OCc2ccccc2)c1 (centres unmarked) [BBAB, 5-benzyloxybenzyl-1-[(1-hydroxy-2-ethoxy)methyl] barbiturate]?
**A.** uridine phosphorylase inhibition compared with uracil / acyclouridine counterpart or analogue (uridine phosphorylase [4]): further improves inhibition; Ki (uridine phosphorylase [4]): 0.8 µM; water solubility compared with acyclouridines ([2]; in water, at room temperature): significantly greater than that of the acyclouridines; solubility [2, 7]: ≥ 3000 µM

Reference: US5141943A, “5-benzyl barbiturate derivatives” (Brown University Research Foundation, priority 1990, dated 1992)
